EPA's ToxRefDB 2

Legend:
rat [1] = conditions: Developmental neurotoxicity range-finding study; sprague dawley; Oral; Feed; group: cannot be grouped; developmental / offspring survival late / [other] / [other] + systemic / in life observation / body weight / litter weight
dog [2] = conditions: Subchronic oral toxicity in nonrodent, beagle, Gavage/Intubation, dose end: 18 week, group: systemic, systemic / in life observation / body weight / body weight + systemic / in life observation / clinical signs / ataxia + systemic / in life …
dog [3] = conditions: Chronic toxicity, beagle, Oral, Feed, dose end: 53 week, group: systemic
rat [4] = conditions: Developmental neurotoxicity study; sprague dawley; Oral; Gavage/Intubation; dose end: 63 PND; group: cannot be grouped; systemic / in life observation / body weight / offspring (pup) weight
rat [5] = conditions: Combined chronic toxicity/carcinogenicity; fischer; Oral; Feed; dose end: 24 month; group: systemic; systemic / clinical chemistry / alanine aminotransferase (alt/sgpt) / alanine aminotransferase (alt/sgpt) + systemic / in life observation…
rabbit = conditions: Prenatal developmental toxicity study, dutch, Oral, Gavage/Intubation, dose end: 18 GD
mouse [6] = conditions: Carcinogenicity; Oral; Feed; dose end: 24 month; group: systemic; systemic / pathology microscopic / skin / fibrosarcoma + systemic / clinical chemistry / aminopyrine-n-demethylase / aminopyrine-n-…
dog [7] = conditions: Subchronic oral toxicity in nonrodent, beagle, Capsule, dose end: 98 day, group: systemic
mouse [8] = conditions: Carcinogenicity, cd1, Oral, Feed, dose end: 78 week, group: systemic
dog [9] = conditions: Chronic toxicity, beagle, Oral, Capsule, dose end: 104 week, group: systemic
rat [10] = conditions: Subchronic oral toxicity in rodents, sprague dawley, Feed, dose end: 13 week, group: systemic
rat [11] = conditions: Combined chronic toxicity/carcinogenicity, sprague dawley, Oral, Feed, dose end: 24 month, group: systemic
[12] = systemic / in life observation / clinical signs / pupillary function (dilation or constriction)
[13] = systemic / in life observation / clinical signs / pupillary function (dilation or constriction) + systemic / clinical chemistry / protein / …
[14] = group: developmental, developmental / developmental malformation / bone / [other] + developmental / developmental malformation / bone / full supernumerary + …
[15] = group: maternal, reproductive / reproductive performance / aborted / aborted + reproductive / reproductive performance / resorptions / resorptions + systemic…
[16] = systemic / pathology gross / liver / enlarged + systemic / pathology microscopic / liver / glycogen deposition
[17] = systemic / pathology gross / liver / enlarged + systemic / pathology microscopic / liver / glycogen deposition + systemic / clinical …
[18] = systemic / in life observation / clinical signs / emesis + systemic / in life observation / clinical signs / salivation + systemic / in life…
[19] = systemic / in life observation / clinical signs / soft stools + systemic / in life observation / clinical signs / emesis
[20] = systemic / clinical chemistry / aspartate aminotransferase (ast/sgot) / aspartate aminotransferase (ast/sgot)
[21] = systemic / in life observation / body weight / body weight + systemic / organ weight / liver / relative to body weight + systemic / clinical…

CC[C@H](C)[C@H]1O[C@]2(C=C[C@@H]1C)C[C@@H]1C[C@@H](C/C=C(\C)[C@@H](O[C@H]3C[C@H](OC)[C@@H](O[C@H]4C[C@H](OC)[C@@H](O)[C@H](C)O4)[C@H](C)O3)[C@@H](C)/C=C/C=C3\CO[C@@H]4[C@H](O)C(C)=C[C@@H](C(=O)O1)[C@]34O)O2.CO[C@H]1C[C@H](O[C@H]2[C@H](C)O[C@@H](O[C@@H]3/C(C)=C/C[C@@H]4C[C@@H](C[C@]5(C=C[C@H](C)[C@@H](C(C)C)O5)O4)OC(=O)[C@@H]4C=C(C)[C@@H](O)[C@H]5OC/C(=C\C=C\[C@@H]3C)[C@]54O)C[C@@H]2OC)O[C@@H](C)[C@@H]1O [Abamectin]
LEL (rat [1]): 0.876 mg/kg/day | LOAEL (rat [1]): 0.876 mg/kg/day | NEL (rat [1]): 0.604 mg/kg/day | NOAEL (rat [1]): 0.604 mg/kg/day | LEL (dog [2]): 0.5 mg/kg/day | LOAEL (dog [2]): 0.5 mg/kg/day | NEL (dog [2]): 0.25 mg/kg/day | NOAEL (dog [2]): 0.25 mg/kg/day | LEL (dog [3]; [12]): 0.5 mg/kg/day | LOAEL (dog [3]; [12]): 0.5 mg/kg/day | NEL (dog [3]; [13]): 0.25 mg/kg/day | NOAEL (dog [3]; [13]): 0.25 mg/kg/day | LEL (rat [4]): 0.4 mg/kg/day | LOAEL (rat [4]): 0.4 mg/kg/day | NEL (rat [4]): 0.2 mg/kg/day | NOAEL (rat [4]): 0.2 mg/kg/day

Cn1cc(-c2ccccc2)c(=O)c(-c2cccc(C(F)(F)F)c2)c1 [Fluridone]
LEL (rat [5]): 25.1 mg/kg/day | LOAEL (rat [5]): > 80.8 mg/kg/day | NEL (rat [5]): 7.65 mg/kg/day | NOAEL (rat [5]): ≥ 80.8 mg/kg/day | LEL (rabbit; [14]): 750 mg/kg/day | LOAEL (rabbit; [14]): > 750 mg/kg/day | NEL (rabbit; [14]): 300 mg/kg/day | NOAEL (rabbit; [14]): ≥ 750 mg/kg/day | LEL (rabbit; [15]): 300 mg/kg/day | LOAEL (rabbit; [15]): 300 mg/kg/day | NEL (rabbit; [15]): 125 mg/kg/day | NOAEL (rabbit; [15]): 125 mg/kg/day | LEL (mouse [6]): 50 mg/kg/day | LOAEL (mouse [6]): > 50 mg/kg/day | NEL (mouse [6]): 15 mg/kg/day | NOAEL (mouse [6]): ≥ 50 mg/kg/day

CC(C)Oc1cccc(NC(=O)c2ccccc2C(F)(F)F)c1 [Flutolanil]
LEL (dog [7]; [16]): 400 mg/kg/day | LOAEL (dog [7]; [16]): 400 mg/kg/day | NEL (dog [7]; [17]): 80 mg/kg/day | NOAEL (dog [7]; [17]): 80 mg/kg/day | LOAEL (mouse [8]; systemic / in life observation / body weight / body weight gain): 839 mg/kg/day | NOAEL (mouse [8]; systemic / in life observation / body weight / body weight gain + systemic / organ weight / liver / absolute + systemic / organ weight / …): 168 mg/kg/day | LEL (mouse [8]; systemic / pathology microscopic / liver / vacuolization): 162 mg/kg/day | NEL (mouse [8]; systemic / pathology microscopic / liver / vacuolization + systemic / in life observation / body weight / body weight gain): 32 mg/kg/day | LOAEL (dog [9]; [18]): 250 mg/kg/day | NOAEL (dog [9]; [18]): 50 mg/kg/day | LEL (dog [9]; [19]): 50 mg/kg/day | NEL (dog [9]; [19]): < 50 mg/kg/day | LEL (rat [10]; [20]): 37 mg/kg/day | NEL (rat [10]; [20]): < 37 mg/kg/day | LOAEL (rat [10]; systemic / organ weight / liver / absolute + systemic / organ weight / liver / relative to body weight): 339 mg/kg/day | NOAEL (rat [10]; systemic / organ weight / liver / absolute + systemic / organ weight / liver / relative to body weight + systemic / clinical chemistry / …): 44 mg/kg/day | LOAEL (rat [11]; systemic / in life observation / body weight / body weight + systemic / organ weight / liver / relative to body weight): 460 mg/kg/day | LEL (rat [11]; [21]): 460 mg/kg/day | NOAEL (rat [11]; [21]): 86.9 mg/kg/day | NEL (rat [11]; systemic / organ weight / liver / relative to body weight): 86.9 mg/kg/day
